Source: ChEMBL document CHEMBL1201862, “PubChem BioAssay data set” (2004)
The source made the active and inactive calls.

What was measured:
Type in all cases: functional
[1] = biological target: Serine/threonine-protein kinase D3 (Homo sapiens, UniProt O94806);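 further: determined within a kinase panel screen, with PRKCN as the panel member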
[2] = biological target: Mitogen-activated protein kinase 8 (Homo sapiens, UniProt P45983);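 further: value comes from one member of a kinome-wide kinase profiling panel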
[3] = biological target: Melanocortin receptor 4 (Homo sapiens, UniProt P32245); assay: MC4R antagonist potency on cAMP, dose response, cell-based, TR-FRET, biased antagonists (AID 602298);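 further: antagonist potency against agonist-stimulated cAMP production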
[4] = biological target: G-protein coupled receptor 55 (Homo sapiens, UniProt Q9Y2T6); assay: GPR55 agonists via beta-arrestin recruitment, primary screen, imaging, U2OS cells, beta-arrestin-GFP redistribution (AID 1961)
[5] = Intein inhibitors as potential Tuberculosis drugs, a cytotoxicity screen. [Related pubchem assays (depositor defined):AID2221, AID2223, AID434968, AID435010, AID449749, AID449750, AID489010]
[6] = biological target: T1, Protein RecA (Mycobacterium tuberculosis, UniProt P9WHJ3); assay: Fluorescence Cell-Free Homogeneous Dose Retest to Identify Inhibitors of RecA-Intein Splicing Activity. [Related pubchem assays (depositor defined):AID2097, AID2223, AID489010, AID492950]
T1 sequence (P9WHJ3 whole entry): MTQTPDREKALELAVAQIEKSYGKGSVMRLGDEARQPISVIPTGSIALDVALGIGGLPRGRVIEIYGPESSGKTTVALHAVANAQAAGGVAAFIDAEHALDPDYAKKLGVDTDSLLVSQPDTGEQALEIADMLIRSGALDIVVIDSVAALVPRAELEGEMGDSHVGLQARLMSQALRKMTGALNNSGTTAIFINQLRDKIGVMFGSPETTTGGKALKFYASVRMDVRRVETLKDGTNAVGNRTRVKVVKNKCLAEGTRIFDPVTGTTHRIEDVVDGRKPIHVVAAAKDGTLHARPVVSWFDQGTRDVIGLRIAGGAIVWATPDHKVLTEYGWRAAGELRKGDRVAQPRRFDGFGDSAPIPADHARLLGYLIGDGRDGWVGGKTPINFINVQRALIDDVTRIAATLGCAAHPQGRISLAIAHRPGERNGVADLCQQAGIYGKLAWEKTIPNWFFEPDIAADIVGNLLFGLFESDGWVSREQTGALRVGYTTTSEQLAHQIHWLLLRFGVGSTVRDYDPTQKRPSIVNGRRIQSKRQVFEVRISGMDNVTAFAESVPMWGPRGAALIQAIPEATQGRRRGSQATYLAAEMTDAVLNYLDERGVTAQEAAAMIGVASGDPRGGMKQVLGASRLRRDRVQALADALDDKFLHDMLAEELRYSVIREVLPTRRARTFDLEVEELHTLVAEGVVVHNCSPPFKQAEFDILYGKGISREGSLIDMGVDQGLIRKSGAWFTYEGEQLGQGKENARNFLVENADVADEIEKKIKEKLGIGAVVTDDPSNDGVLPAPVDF

[7] = biological target: T2, Replicative DNA helicase DnaB (Mycobacterium tuberculosis, UniProt P9WMR3); assay: DnaB intein splicing inhibitors, dose response, biochemical, cell-free fluorescence (AID 449749)
T2 sequence (P9WMR3 whole entry): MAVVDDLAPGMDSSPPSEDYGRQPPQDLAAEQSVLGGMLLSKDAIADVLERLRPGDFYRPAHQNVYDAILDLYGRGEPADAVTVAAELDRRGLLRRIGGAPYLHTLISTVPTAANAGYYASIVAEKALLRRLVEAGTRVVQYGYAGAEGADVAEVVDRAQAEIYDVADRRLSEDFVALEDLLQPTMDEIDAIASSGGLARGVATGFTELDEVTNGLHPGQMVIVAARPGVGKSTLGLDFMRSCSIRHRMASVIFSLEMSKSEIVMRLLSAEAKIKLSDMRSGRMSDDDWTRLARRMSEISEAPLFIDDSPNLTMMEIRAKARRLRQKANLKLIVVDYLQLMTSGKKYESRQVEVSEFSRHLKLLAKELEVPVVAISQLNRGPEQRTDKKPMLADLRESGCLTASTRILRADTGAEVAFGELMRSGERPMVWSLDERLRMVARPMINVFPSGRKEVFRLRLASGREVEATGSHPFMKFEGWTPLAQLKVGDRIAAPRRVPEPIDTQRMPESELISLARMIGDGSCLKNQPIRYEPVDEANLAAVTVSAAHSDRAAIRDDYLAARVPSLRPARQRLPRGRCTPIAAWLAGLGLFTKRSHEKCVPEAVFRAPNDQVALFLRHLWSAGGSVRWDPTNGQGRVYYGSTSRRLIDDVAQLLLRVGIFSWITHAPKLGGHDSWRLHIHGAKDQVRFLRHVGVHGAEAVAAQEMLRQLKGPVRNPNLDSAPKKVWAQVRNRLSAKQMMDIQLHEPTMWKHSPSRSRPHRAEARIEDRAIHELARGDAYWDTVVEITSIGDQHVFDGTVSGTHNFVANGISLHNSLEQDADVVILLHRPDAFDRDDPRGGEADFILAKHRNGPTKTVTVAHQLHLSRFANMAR

[8] = nonselective inhibitors of cellular cAMP signaling, dose response, counter-screen for MC4R biased antagonist project, cell-based, TR-FRET cAMP detection (AID 602305);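 further: U2OS cells stimulated with forskolin near its EC80 as the cAMP inducer; potency is for inhibition of forskolin-stimulated cAMP signaling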
[9] = biological target: Vascular endothelial growth factor receptor 2 (Homo sapiens, UniProt P35968)
[10] = biological target: Aurora kinase B (Homo sapiens, UniProt Q96GD4)
[11] = biological target: Aurora kinase A (Homo sapiens, UniProt O14965);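 further: value from the Navigating the Kinome kinase panel profiling, panel entry STK6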
[12] = biological target: Interleukin-1 receptor-associated kinase 4 (Homo sapiens, UniProt Q9NWZ3)
[13] = biological target: Homeodomain-interacting protein kinase 2 (Homo sapiens, UniProt Q9H2X6);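 further: measured within a kinome-wide kinase profiling panel, HIPK2 being one panel member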
[14] = biological target: Serine/threonine-protein kinase pim-1 (Homo sapiens, UniProt P11309)
[15] = biological target: Mitogen-activated protein kinase kinase kinase kinase 4 (Homo sapiens, UniProt O95819)
[16] = biological target: cAMP-dependent protein kinase catalytic subunit alpha (Homo sapiens, UniProt P17612)
[17] = biological target: Cell division cycle 7-related protein kinase (Homo sapiens, UniProt O00311);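 further: value obtained from a kinome-wide kinase panel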
[18] = biological target: Glycogen synthase kinase-3 beta (Homo sapiens, UniProt P49841);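 further: value comes from a broad kinome profiling panel, with GSK3B as the panel member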
[19] = (§1) Counterscreen for antagonists of the orexin 1 receptor (OX1R; HCRTR1): Fluorescence-based cell-based high throughput dose response assay to identify antagonists of the parental CHO cell line. [Related pubchem assays (depositor defined):AID434989, AID435008, AID463079, AID485270, AID492963, AID492964, AID492965, AID493232, AID504699, AID504701]
[20] = biological target: T3, Orexin receptor type 2 (Homo sapiens, UniProt O43614); assay: Counterscreen assay for antagonists of the orexin 1 receptor (OX1R; HCRTR1): Homogeneous Time Resolved Fluorescence (HTRF)-based cell-based dose response assay for antagonists of the orexin 2 receptor (OX2R; HCRTR2), run by assay provider.
[21] = biological target: T4, Orexin/Hypocretin receptor type 1 (Homo sapiens, UniProt O43613); assay: (§2) Fluorescence-based cell-based high throughput dose response assay for antagonists of the orexin 1 receptor (OX1R; HCRTR1). [Related pubchem assays (depositor defined):AID434989, AID435008, AID463079, AID485270, AID492963, AID492964, AID492965, AID493232, AID504717, AID504718]
T4 sequence (O43613 whole entry): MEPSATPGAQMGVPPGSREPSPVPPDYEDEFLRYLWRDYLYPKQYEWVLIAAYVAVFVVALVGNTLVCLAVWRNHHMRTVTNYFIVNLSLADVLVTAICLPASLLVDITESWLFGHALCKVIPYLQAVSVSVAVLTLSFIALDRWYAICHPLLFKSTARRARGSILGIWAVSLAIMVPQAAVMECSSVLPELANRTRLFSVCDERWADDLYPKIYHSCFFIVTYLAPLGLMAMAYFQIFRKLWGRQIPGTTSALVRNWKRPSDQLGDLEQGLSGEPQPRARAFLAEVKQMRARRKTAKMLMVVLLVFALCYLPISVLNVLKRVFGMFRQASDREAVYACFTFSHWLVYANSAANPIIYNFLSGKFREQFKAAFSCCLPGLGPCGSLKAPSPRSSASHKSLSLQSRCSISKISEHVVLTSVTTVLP

[22] = biological target: T3, Orexin receptor type 2; assay: Counterscreen assay for antagonists of the orexin 1 receptor (OX1R; HCRTR1): Fluorescence-based cell-based dose response assay for antagonists of the orexin 2 receptor (OX2R; HCRTR2), run by assay provider.
[23] = biological target: T4, Orexin/Hypocretin receptor type 1; assay: as §2, with “Homogeneous Time Resolved Fluorescence (HTRF)-based” for “Fluorescence-based”
[24] = system: CHO-K1; assay: as §1, with “Homogeneous time resolved fluorescence (HTRF)-based” for “Fluorescence-based”, “cell-based” for “cell-based high throughput”, “CHO-K1” for “CHO”; settings: Cricetulus griseus;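 further: potency for inhibition of ATP-stimulated IP1 production as antagonists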
[25] = biological target: Sphingosine 1-phosphate receptor 4 (Homo sapiens, UniProt O95977); assay: Late-stage fluorescence-based dose-response cell-based counterscreen assay to identify agonists of the Sphingosine 1-Phosphate Receptor 3 (S1P3): Sphingosine 1-Phosphate Receptor 4 (S1P4) agonist assay.
[26] = biological target: Sphingosine 1-phosphate receptor 2 (Homo sapiens, UniProt O95136); assay: Late-stage fluorescence-based dose-response cell-based counterscreen assay to identify agonists of the Sphingosine 1-Phosphate Receptor 3 (S1P3): Sphingosine 1-Phosphate Receptor 2 (S1P2) agonist assay.
[27] = biological target: Mitogen-activated protein kinase 9 (Homo sapiens, UniProt P45984);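 further: value from a kinome panel profiling assay, MAPK9 panel entry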
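Wherever CC50 is given: cells exposed to compound for 72 hours before luminescence readout.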

T3 sequence (O43614 whole entry): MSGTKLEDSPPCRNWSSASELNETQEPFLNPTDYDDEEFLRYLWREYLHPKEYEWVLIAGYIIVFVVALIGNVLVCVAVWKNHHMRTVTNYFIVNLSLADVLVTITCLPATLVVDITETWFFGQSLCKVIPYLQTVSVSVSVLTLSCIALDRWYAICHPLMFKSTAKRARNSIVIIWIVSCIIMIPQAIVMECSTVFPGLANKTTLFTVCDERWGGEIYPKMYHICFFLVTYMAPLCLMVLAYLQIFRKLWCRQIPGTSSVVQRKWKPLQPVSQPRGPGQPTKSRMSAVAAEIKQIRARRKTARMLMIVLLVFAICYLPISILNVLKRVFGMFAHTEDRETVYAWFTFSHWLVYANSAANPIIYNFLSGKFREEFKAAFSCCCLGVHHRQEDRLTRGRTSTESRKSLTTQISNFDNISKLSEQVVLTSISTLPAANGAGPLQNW
Chain of Serine/threonine-protein kinase D3 (O94806 whole entry): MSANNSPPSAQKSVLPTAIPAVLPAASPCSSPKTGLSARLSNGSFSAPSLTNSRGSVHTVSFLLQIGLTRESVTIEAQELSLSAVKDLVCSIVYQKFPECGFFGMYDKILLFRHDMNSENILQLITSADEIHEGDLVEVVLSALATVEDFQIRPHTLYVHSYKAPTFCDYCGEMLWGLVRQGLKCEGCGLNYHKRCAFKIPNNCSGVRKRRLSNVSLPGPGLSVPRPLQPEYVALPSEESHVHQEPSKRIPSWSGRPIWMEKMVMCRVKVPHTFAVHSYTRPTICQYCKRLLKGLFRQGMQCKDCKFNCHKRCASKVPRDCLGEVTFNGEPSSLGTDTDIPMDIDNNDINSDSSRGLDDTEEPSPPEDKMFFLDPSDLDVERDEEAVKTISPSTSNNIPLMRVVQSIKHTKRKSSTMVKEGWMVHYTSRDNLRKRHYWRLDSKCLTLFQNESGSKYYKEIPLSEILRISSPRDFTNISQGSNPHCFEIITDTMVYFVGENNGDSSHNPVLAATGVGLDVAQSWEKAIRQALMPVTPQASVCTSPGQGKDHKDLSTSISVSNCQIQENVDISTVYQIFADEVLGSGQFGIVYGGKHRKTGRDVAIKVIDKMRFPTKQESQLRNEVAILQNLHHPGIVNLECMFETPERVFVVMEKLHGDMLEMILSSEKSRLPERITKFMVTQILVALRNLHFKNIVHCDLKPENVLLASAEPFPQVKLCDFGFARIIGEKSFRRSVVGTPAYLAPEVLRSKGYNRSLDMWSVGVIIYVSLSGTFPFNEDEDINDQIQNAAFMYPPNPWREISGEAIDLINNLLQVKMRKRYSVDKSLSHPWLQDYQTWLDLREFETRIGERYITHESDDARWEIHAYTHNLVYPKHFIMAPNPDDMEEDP
Chain of Glycogen synthase kinase-3 beta (P49841 whole entry): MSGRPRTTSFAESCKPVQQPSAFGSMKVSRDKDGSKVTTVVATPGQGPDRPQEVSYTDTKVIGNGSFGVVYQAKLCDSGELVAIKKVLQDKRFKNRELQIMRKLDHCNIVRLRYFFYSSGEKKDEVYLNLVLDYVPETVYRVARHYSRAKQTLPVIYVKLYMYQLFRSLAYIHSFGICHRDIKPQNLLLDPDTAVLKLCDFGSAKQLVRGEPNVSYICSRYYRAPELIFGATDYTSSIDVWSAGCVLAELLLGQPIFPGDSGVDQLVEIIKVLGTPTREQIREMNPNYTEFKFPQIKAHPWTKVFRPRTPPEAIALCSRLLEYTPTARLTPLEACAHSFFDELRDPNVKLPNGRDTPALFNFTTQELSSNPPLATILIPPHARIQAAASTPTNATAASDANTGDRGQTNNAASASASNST
Chain of Interleukin-1 receptor-associated kinase 4 (Q9NWZ3 whole entry): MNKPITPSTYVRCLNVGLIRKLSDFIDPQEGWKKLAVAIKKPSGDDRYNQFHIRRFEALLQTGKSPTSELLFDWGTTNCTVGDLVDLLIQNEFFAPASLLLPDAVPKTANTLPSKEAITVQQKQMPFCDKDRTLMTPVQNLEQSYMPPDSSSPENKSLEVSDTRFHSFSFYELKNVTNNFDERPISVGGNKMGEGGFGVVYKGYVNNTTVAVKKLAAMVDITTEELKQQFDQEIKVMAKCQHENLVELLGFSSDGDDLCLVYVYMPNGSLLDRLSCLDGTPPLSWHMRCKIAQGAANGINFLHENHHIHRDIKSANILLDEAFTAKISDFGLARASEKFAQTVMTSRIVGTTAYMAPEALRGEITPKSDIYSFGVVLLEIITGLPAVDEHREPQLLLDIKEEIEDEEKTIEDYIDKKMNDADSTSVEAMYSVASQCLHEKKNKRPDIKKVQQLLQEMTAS
Chain of Aurora kinase A (O14965 whole entry): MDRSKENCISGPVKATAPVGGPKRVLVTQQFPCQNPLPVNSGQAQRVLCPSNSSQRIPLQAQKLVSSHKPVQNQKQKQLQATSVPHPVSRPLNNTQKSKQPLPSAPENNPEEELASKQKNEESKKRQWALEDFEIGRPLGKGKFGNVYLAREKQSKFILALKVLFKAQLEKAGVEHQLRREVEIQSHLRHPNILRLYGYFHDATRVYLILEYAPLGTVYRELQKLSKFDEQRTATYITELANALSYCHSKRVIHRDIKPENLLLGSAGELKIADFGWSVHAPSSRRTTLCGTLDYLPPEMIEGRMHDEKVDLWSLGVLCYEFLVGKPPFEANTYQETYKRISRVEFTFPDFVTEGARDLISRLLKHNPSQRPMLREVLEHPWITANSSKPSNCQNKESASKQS
Chain of Cell division cycle 7-related protein kinase (O00311 whole entry): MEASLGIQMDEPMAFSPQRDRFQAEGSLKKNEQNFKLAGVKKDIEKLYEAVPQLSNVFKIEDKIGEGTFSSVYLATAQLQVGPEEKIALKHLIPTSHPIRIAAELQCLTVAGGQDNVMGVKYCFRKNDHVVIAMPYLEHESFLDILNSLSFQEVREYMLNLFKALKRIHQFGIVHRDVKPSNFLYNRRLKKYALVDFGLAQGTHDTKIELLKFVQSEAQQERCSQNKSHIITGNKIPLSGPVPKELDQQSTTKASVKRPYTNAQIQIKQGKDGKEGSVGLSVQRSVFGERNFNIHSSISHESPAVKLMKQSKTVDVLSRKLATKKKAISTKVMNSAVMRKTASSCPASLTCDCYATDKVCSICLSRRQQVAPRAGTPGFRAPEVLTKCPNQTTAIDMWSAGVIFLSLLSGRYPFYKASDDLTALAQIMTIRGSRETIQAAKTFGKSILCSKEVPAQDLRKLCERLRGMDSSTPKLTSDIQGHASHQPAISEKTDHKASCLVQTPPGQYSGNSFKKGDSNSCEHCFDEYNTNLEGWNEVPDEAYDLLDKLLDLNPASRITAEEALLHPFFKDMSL
Chain of Mitogen-activated protein kinase kinase kinase kinase 4 (O95819 whole entry): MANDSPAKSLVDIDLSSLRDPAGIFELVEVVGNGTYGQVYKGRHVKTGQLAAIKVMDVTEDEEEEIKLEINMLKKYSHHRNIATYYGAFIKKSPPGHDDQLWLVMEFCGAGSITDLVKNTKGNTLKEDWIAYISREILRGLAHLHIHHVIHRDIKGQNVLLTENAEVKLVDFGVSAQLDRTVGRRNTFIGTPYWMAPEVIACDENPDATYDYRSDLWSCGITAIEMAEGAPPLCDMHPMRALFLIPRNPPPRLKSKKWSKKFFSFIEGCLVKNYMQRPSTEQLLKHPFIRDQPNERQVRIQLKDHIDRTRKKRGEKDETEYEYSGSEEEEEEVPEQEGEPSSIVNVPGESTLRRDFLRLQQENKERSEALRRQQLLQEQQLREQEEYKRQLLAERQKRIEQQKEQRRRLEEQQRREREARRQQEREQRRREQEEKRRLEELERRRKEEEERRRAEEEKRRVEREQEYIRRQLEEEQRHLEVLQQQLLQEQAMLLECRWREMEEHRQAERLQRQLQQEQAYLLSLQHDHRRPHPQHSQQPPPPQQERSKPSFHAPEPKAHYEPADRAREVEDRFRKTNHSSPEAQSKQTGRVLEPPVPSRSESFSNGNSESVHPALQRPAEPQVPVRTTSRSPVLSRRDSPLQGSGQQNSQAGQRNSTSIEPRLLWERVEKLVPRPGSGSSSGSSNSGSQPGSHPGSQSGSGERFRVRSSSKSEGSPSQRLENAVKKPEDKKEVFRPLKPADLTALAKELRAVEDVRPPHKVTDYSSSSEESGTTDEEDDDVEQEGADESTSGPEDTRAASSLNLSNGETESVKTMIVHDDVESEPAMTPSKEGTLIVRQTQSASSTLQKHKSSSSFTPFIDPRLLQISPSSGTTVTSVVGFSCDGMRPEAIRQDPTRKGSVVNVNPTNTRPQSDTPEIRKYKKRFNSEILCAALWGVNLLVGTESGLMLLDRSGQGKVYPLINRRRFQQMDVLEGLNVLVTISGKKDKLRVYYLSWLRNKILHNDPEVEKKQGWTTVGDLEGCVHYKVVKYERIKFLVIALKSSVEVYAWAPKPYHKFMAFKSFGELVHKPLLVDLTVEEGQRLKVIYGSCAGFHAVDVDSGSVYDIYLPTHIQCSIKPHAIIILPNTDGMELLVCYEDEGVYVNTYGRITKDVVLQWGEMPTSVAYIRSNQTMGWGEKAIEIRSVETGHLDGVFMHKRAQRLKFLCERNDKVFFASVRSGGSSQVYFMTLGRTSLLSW
Chain of Sphingosine 1-phosphate receptor 4 (O95977 whole entry): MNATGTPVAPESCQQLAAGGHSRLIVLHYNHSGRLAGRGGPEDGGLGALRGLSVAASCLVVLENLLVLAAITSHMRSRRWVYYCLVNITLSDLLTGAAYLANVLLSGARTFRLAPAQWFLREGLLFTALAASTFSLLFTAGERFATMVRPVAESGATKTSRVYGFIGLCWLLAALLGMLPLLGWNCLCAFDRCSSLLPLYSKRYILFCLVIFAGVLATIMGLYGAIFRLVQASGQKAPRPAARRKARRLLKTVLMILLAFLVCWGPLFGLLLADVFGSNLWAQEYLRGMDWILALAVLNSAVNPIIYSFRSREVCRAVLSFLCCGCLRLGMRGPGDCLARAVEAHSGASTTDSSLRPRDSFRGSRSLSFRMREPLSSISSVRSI

CCOc1nc(NC(=O)C(C)C)cc(N)c1C#N
Ki [1]: 7.94 µM (active)
Ki [2]: 1.26 µM (active)

Cc1ccc2c(c1)c1c3n2CCN(C(=O)CCl)C3CCC1 (configuration not stated)
IC50 [3]: > 64.6 µM (inactive)
EC50 [4]: > 32 µM (inactive)
CC50 [5]: 24.7 µM (active)
EC50 [6]: 1.19 µM (active)
AC50 [7]: 2.05 µM (active)
IC50 [8]: > 64.6 µM (inactive)

O=S(=O)(Nc1ccc2c(c1)C(=NO)c1ccccc1-2)c1ccccc1F
Ki [9]: 0.794 µM (active)
Ki [10]: 0.02 µM (active)
Ki [11]: 0.794 µM (active)

Cc1n[nH]c2ccc(-c3cncc(OCCNS(C)(=O)=O)c3)cc12
Ki [12]: 3.98 µM (active)
Ki [13]: 1 µM (active)
Ki [14]: 5.01 µM (active)
Ki [15]: 0.0794 µM (active)
Ki [16]: 6.31 µM (active)
Ki [17]: 0.0631 µM (active)
Ki [18]: 1 µM (active)

O=C(C1CCCN1S(=O)(=O)c1cccc2cccnc12)N1CCn2c1nc1ccccc12 (configuration not stated)
IC50 [19]: > 49.7 µM (inactive)
IC50 [20]: 9.68 µM (active)
IC50 [21]: 3.36 µM (active)
IC50 [22]: > 88.8 µM (inactive)
IC50 [23]: 0.153 µM (active)
IC50 [24]: > 66.2 µM (inactive)

CCN(CC)C(=O)c1cc(C2CC2)on1
EC50 [25]: > 50 µM (inactive)
EC50 [26]: > 50 µM (inactive)

CC(C)(C)c1cc(NC(=O)c2cc3ccccc3s2)n(-c2cccc(OCC(=O)O)c2)n1
Ki [27]: 2 µM (active)
